Consider two compounds from paper PMC7430679 (RNA, 2020).

In experiment [1] the target is T. maritima TsaD (Thermotoga maritima, UniProt Q9WXZ2). In words: STD NMR. It is filed as binding. The settings on record: 20 µM protein, 1 mM amino acid, 10 mM potassium phosphate pH 6.8, 100 mM NaCl, 99% D2O, 37°C.
Experiment [2] deals with E. coli TsaD (Escherichia coli, UniProt P05852). In words: STD NMR. It is filed as binding. As to conditions: 20 µM protein, 1 mM amino acid, 10 mM potassium phosphate pH 6.8, 100 mM NaCl, 99% D2O, 37°C.
Chain of E. coli TsaD (P05852 whole entry): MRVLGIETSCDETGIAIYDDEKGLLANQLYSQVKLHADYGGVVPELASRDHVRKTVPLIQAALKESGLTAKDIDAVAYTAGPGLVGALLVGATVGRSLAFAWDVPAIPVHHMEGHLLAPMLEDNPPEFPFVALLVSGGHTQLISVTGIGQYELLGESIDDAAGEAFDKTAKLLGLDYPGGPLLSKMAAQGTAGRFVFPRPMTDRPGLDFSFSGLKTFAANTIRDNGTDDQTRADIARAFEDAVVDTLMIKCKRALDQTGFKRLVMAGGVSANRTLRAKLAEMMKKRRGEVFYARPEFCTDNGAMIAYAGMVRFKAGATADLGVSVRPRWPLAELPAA

Chain of T. maritima TsaD (Q9WXZ2 whole entry): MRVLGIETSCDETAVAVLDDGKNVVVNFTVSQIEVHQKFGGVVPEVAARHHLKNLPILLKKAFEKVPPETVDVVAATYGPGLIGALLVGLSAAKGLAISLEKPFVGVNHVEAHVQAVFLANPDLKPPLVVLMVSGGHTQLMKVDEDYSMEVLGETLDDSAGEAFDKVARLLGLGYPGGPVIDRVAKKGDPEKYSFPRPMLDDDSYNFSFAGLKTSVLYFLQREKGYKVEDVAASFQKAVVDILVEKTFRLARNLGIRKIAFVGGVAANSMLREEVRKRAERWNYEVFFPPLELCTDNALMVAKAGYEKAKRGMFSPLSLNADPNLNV

Consider `CCC(O)C(N)C(=O)O` (racemic) [hnV, D,L-3-hydroxynorvaline], for which, in experiment [1] (racemate tested), the “STD NMR” value was “interaction with hydroxynorvaline, distinct signals due to interactions with the Hα and Hβ protons”.
As to `C[C@@H](O)[C@H](N)C(=O)O` [Thr, L-threonine], the “STD NMR” value in experiment [2] is on record as “E. coli TsaD shows a similar pattern of interaction with threonine”; in experiment [1], “clear STD NMR signal for its interaction with the Hβ proton of threonine”.
